Laboratory results published in patent US11419806B2, “Prebiotic oral care methods using a saccharide” (Colgate-Palmolive Company, priority 2013, dated 2022).

Tests used:
Assay type in all cases: cell-based
Actinomyces naeslundii = test: Twenty-four hour optical density growth in BHI; conditions: A naeslundii
Description: (§1) The extent of growth of the tested bacteria in response to selected saccharides (myo-inositol, D-lactitol, D-turanose and N-acetyl-D-mannosamine) was investigated by setting up growth curves in a nutritionally rich medium (brain heart infusion broth (BHI), Oxoid), over 24 hours. Late exponential growth phase liquid cultures were prepared by transferring the respective bacterium from blood agar plates to BHI and overnight incubation at 37° C. in an anaerobic atmosphere for A. viscosus, V. parvula, F. nucleatum, P. gingivalis, P. intermedia, T. forsythia, A. naeslundii, and C. sputigena, and in a 5% CO2 environment for S. salivarius, S. sanguinis, S. mitis, A. actinomycetemcomitans, S. mutans, S. sobrinus and S. gordonii. Overnight cultures were transferred to BHI and adjusted to a concentration of 1×10^7 CFU/ml (colony forming units per ml) by measuring the optical density at 600 nm (OD600) (BioRad SmartSpec 3000). For each strain, 200 μl of the bacterial suspension was added to a 96-well plate containing 20 μl of the respective saccharides. Final concentrations of the saccharides were set to 5, 10, 20 and 25 μmol/ml. […] Plates were incubated as previously described.
(§2) For each combination of bacterium/saccharide, and for each of their respective controls (i.e. the particular bacterium in the nutritionally rich medium with no saccharide), the optical density was measured at 630 nm (OD630) at 0 h and 24 h (Thermo Scientific Multiskan Ascent). Additionally, the OD630 for combinations of bacterium/saccharides grown in a 5% CO2 environment were also measured every hour between 0 h and 9 h.
(§3) The experiment was carried out on three different days (thus providing 3 biological replicas) and on each day the experiment was carried out in quadruple (thus providing 4 technical replicas) for each combination of bacterium with saccharide and for each control. For each day and for each combination, the average (mean) of the values obtained (as detailed above) for the four technical replicas was calculated to provide a single value for each combination on each day. The values shown in Tables 5a,b to 6a,b, below, are the average (mean) of the three single values obtained for each combination of bacterium with saccharide.

Actinomyces viscosus = test: Twenty-four hour optical density growth in BHI; conditions: A viscosus
Description: as §1, §2, §3

[1] = test system: Aggregatibacter actinomycetemcomitans; test: Twenty-four hour optical density growth in BHI; conditions: A actinomycetemcomitans
Description: as §1, §2, §3

Capnocytophaga sputigena = test: Twenty-four hour optical density growth in BHI; conditions: C sputigena
Description: as §1, §2, §3

Fusobacterium nucleatum = test: Twenty-four hour optical density growth in BHI; conditions: F nucleatum
Description: as §1, §2, §3

Porphyromonas gingivalis = test: Twenty-four hour optical density growth in BHI; conditions: P gingivalis
Description: as §1, §2, §3

Prevotella intermedia = test: Twenty-four hour optical density growth in BHI; conditions: P intermedia
Description: as §1, §2, §3

S. sanguinis = test: Twenty-four hour optical density growth in BHI
Description: as §1, §2, §3

Streptococcus gordonii = test: Twenty-four hour optical density growth in BHI; conditions: S gordonii
Description: as §1, §2, §3

Streptococcus mitis = test: Twenty-four hour optical density growth in BHI; conditions: S mitis
Description: as §1, §2, §3

Streptococcus mutans = test: Twenty-four hour optical density growth in BHI; conditions: S mutans
Description: as §1, §2, §3

Streptococcus salivarius = test: Twenty-four hour optical density growth in BHI; conditions: S salivarius
Description: as §1, §2, §3

Streptococcus sobrinus = test: Twenty-four hour optical density growth in BHI; conditions: S sobrinus
Description: as §1, §2, §3

Tannerella forsythia = test: Twenty-four hour optical density growth in BHI; conditions: T forsythia
Description: as §1, §2, §3

Veillonella parvula = test: Twenty-four hour optical density growth in BHI; conditions: V parvula
Description: as §1, §2, §3

[2] = test system: beneficial oral bacteria and pathogenic oral bacteria; test: Twenty-four hour optical density, overall prebiotic assessment; conditions: concentrations of 5, 10, 20 and 25 μmol/ml
Text: Substrates that were able to increase the growth (or maximal growth density or extent of growth) of at least one of the above beneficial bacteria while not or only minimally increasing the growth (or maximal growth density) of the pathogenic bacteria are considered to be prebiotic compounds.
The extent of growth of the tested bacteria in response to selected saccharides (myo-inositol, D-lactitol, D-turanose and N-acetyl-D-mannosamine) was investigated by setting up growth curves in a nutritionally rich medium (brain heart infusion broth (BHI), Oxoid), over 24 hours. Late exponential growth phase liquid cultures were prepared by transferring the respective bacterium from blood agar plates to BHI and overnight incubation at 37° C. in an anaerobic atmosphere for A. viscosus, V. parvula, F. nucleatum, P. gingivalis, P. intermedia, T. forsythia, A. naeslundii, and C. sputigena, and in a 5% CO2 environment for S. salivarius, S. sanguinis, S. mitis, A. actinomycetemcomitans, S. mutans, S. sobrinus and S. gordonii. […]
as §2
as §3, with “The values shown in Tables 5a,b to 6a,b, below, are the average (mean) of the three single values obtained for each combination of bacterium with saccharide.” left out

CC(=O)N[C@H](C=O)[C@@H](O)[C@H](O)[C@H](O)CO [N-acetyl-D-mannosamine, 2-acetamido-2-deoxy-D-mannose]
extent of growth: maximal OD630 over 24 hr divided by maximal OD of control (control = 1) (Actinomyces naeslundii; 5 μmol/ml): 0.9820
extent of growth: maximal OD630 over 24 hr divided by maximal OD of control (control = 1) (Actinomyces naeslundii; 10 μmol/ml): 0.8708
extent of growth: maximal OD630 over 24 hr divided by maximal OD of control (control = 1) (Actinomyces naeslundii; 20 μmol/ml): 0.9716
extent of growth: maximal OD630 over 24 hr divided by maximal OD of control (control = 1) (Actinomyces naeslundii; 25 μmol/ml): 0.8535
extent of growth: maximal OD630 over 24 hr divided by maximal OD of control (control = 1) (Actinomyces viscosus; 5 μmol/ml): 0.8017
extent of growth: maximal OD630 over 24 hr divided by maximal OD of control (control = 1) (Actinomyces viscosus; 10 μmol/ml): 0.8753
extent of growth: maximal OD630 over 24 hr divided by maximal OD of control (control = 1) (Actinomyces viscosus; 20 μmol/ml): 0.9225
extent of growth: maximal OD630 over 24 hr divided by maximal OD of control (control = 1) (Actinomyces viscosus; 25 μmol/ml): 0.8824
extent of growth: maximal OD630 over 24 hr divided by maximal OD of control (control = 1) ([1]; 5 μmol/ml): 1.0637
extent of growth: maximal OD630 over 24 hr divided by maximal OD of control (control = 1) ([1]; 10 μmol/ml): 0.9102
extent of growth: maximal OD630 over 24 hr divided by maximal OD of control (control = 1) ([1]; 20 μmol/ml): 0.9405
extent of growth: maximal OD630 over 24 hr divided by maximal OD of control (control = 1) ([1]; 25 μmol/ml): 0.8614
extent of growth: maximal OD630 over 24 hr divided by maximal OD of control (control = 1) (Capnocytophaga sputigena; 5 μmol/ml): 0.9620
extent of growth: maximal OD630 over 24 hr divided by maximal OD of control (control = 1) (Capnocytophaga sputigena; 10 μmol/ml): 0.9635
extent of growth: maximal OD630 over 24 hr divided by maximal OD of control (control = 1) (Capnocytophaga sputigena; 20 μmol/ml): 0.9576
extent of growth: maximal OD630 over 24 hr divided by maximal OD of control (control = 1) (Capnocytophaga sputigena; 25 μmol/ml): 0.9554
extent of growth: maximal OD630 over 24 hr divided by maximal OD of control (control = 1) (Fusobacterium nucleatum; 5 μmol/ml): 0.9065
extent of growth: maximal OD630 over 24 hr divided by maximal OD of control (control = 1) (Fusobacterium nucleatum; 10 μmol/ml): 0.8477
extent of growth: maximal OD630 over 24 hr divided by maximal OD of control (control = 1) (Fusobacterium nucleatum; 20 μmol/ml): 0.9564
extent of growth: maximal OD630 over 24 hr divided by maximal OD of control (control = 1) (Fusobacterium nucleatum; 25 μmol/ml): 0.9193
extent of growth: maximal OD630 over 24 hr divided by maximal OD of control (control = 1) (Porphyromonas gingivalis; 5 μmol/ml): 0.8020
extent of growth: maximal OD630 over 24 hr divided by maximal OD of control (control = 1) (Porphyromonas gingivalis; 10 μmol/ml): 0.8427
extent of growth: maximal OD630 over 24 hr divided by maximal OD of control (control = 1) (Porphyromonas gingivalis; 20 μmol/ml): 0.9137
extent of growth: maximal OD630 over 24 hr divided by maximal OD of control (control = 1) (Porphyromonas gingivalis; 25 μmol/ml): 0.9419
extent of growth: maximal OD630 over 24 hr divided by maximal OD of control (control = 1) (Prevotella intermedia; 5 μmol/ml): 0.9530
extent of growth: maximal OD630 over 24 hr divided by maximal OD of control (control = 1) (Prevotella intermedia; 10 μmol/ml): 1.0261
extent of growth: maximal OD630 over 24 hr divided by maximal OD of control (control = 1) (Prevotella intermedia; 20 μmol/ml): 1.0229
extent of growth: maximal OD630 over 24 hr divided by maximal OD of control (control = 1) (Prevotella intermedia; 25 μmol/ml): 1.0494
extent of growth: maximal OD630 over 24 hr divided by maximal OD of control (control = 1) (S. sanguinis; 5 μmol/ml): 0.8350
extent of growth: maximal OD630 over 24 hr divided by maximal OD of control (control = 1) (S. sanguinis; 10 μmol/ml): 0.8644
extent of growth: maximal OD630 over 24 hr divided by maximal OD of control (control = 1) (S. sanguinis; 20 μmol/ml): 0.8219
extent of growth: maximal OD630 over 24 hr divided by maximal OD of control (control = 1) (S. sanguinis; 25 μmol/ml): 0.8122
extent of growth: maximal OD630 over 24 hr divided by maximal OD of control (control = 1) (Streptococcus gordonii; 5 μmol/ml): 0.9930
extent of growth: maximal OD630 over 24 hr divided by maximal OD of control (control = 1) (Streptococcus gordonii; 10 μmol/ml): 1.0254
extent of growth: maximal OD630 over 24 hr divided by maximal OD of control (control = 1) (Streptococcus gordonii; 20 μmol/ml): 0.9827
extent of growth: maximal OD630 over 24 hr divided by maximal OD of control (control = 1) (Streptococcus gordonii; 25 μmol/ml): 1.0015
extent of growth: maximal OD630 over 24 hr divided by maximal OD of control (control = 1) (Streptococcus mitis; 5 μmol/ml): 1.3409
extent of growth: maximal OD630 over 24 hr divided by maximal OD of control (control = 1) (Streptococcus mitis; 10 μmol/ml): 1.3866
extent of growth: maximal OD630 over 24 hr divided by maximal OD of control (control = 1) (Streptococcus mitis; 20 μmol/ml): 1.7155
extent of growth: maximal OD630 over 24 hr divided by maximal OD of control (control = 1) (Streptococcus mitis; 25 μmol/ml): 1.7409
extent of growth: maximal OD630 over 24 hr divided by maximal OD of control (control = 1) (Streptococcus mutans; 5 μmol/ml): 0.8669
extent of growth: maximal OD630 over 24 hr divided by maximal OD of control (control = 1) (Streptococcus mutans; 10 μmol/ml): 0.8670
extent of growth: maximal OD630 over 24 hr divided by maximal OD of control (control = 1) (Streptococcus mutans; 20 μmol/ml): 0.8300
extent of growth: maximal OD630 over 24 hr divided by maximal OD of control (control = 1) (Streptococcus mutans; 25 μmol/ml): 0.8283
extent of growth: maximal OD630 over 24 hr divided by maximal OD of control (control = 1) (Streptococcus salivarius; 5 μmol/ml): 0.8639
extent of growth: maximal OD630 over 24 hr divided by maximal OD of control (control = 1) (Streptococcus salivarius; 10 μmol/ml): 0.8849
extent of growth: maximal OD630 over 24 hr divided by maximal OD of control (control = 1) (Streptococcus salivarius; 20 μmol/ml): 0.8460
extent of growth: maximal OD630 over 24 hr divided by maximal OD of control (control = 1) (Streptococcus salivarius; 25 μmol/ml): 0.9251
extent of growth: maximal OD630 over 24 hr divided by maximal OD of control (control = 1) (Streptococcus sobrinus; 5 μmol/ml): 0.9307
extent of growth: maximal OD630 over 24 hr divided by maximal OD of control (control = 1) (Streptococcus sobrinus; 10 μmol/ml): 0.7794
extent of growth: maximal OD630 over 24 hr divided by maximal OD of control (control = 1) (Streptococcus sobrinus; 20 μmol/ml): 0.7737
extent of growth: maximal OD630 over 24 hr divided by maximal OD of control (control = 1) (Streptococcus sobrinus; 25 μmol/ml): 0.7857
extent of growth: maximal OD630 over 24 hr divided by maximal OD of control (control = 1) (Tannerella forsythia; 5 μmol/ml): 0.9742
extent of growth: maximal OD630 over 24 hr divided by maximal OD of control (control = 1) (Tannerella forsythia; 10 μmol/ml): 0.9715
extent of growth: maximal OD630 over 24 hr divided by maximal OD of control (control = 1) (Tannerella forsythia; 20 μmol/ml): 0.9706
extent of growth: maximal OD630 over 24 hr divided by maximal OD of control (control = 1) (Tannerella forsythia; 25 μmol/ml): 0.9451
extent of growth: maximal OD630 over 24 hr divided by maximal OD of control (control = 1) (Veillonella parvula; 5 μmol/ml): 1.0227
extent of growth: maximal OD630 over 24 hr divided by maximal OD of control (control = 1) (Veillonella parvula; 10 μmol/ml): 1.0174
extent of growth: maximal OD630 over 24 hr divided by maximal OD of control (control = 1) (Veillonella parvula; 20 μmol/ml): 1.0466
extent of growth: maximal OD630 over 24 hr divided by maximal OD of control (control = 1) (Veillonella parvula; 25 μmol/ml): 1.0213
prebiotic effects (extent of growth, threshold value 1.25) [2]: exhibited prebiotic effects
